Results: patent US20210401791A1, “METHODS AND COMPOSITIONS FOR REDUCING ALCOHOL TOXICITY” (THE JOHNS HOPKINS UNIVERSITY, priority 2011, published 2021)
“Also recorded” adds a separate entry of the source. Like-named read-outs stand apart in the source and are kept apart here.

Tests used:
NQO1 [1] = assay: NQO1 activity in Hepa1c1c7 cells (Prochaska assay, menadione substrate); assay type: cell-based, mouse; details: 48 h
Procedure: The lysates of Hepa1c1c7 cells which were plated in 96-well plates at 10^4 cells per well, grown for 24 h, and then exposed to serial dilutions of inducers for 48 h.

Aldh3a1 [2] = assay: mRNA expression of Aldh3a1 in Hepa1c1c7 cells (real-time PCR); assay type: cell-based, mouse; details: 24 hours, SF 1 or 3 μM, TP-225 0.003 or 0.01 μM, BNF 0.3 or 1 μM
Procedure: Total RNA was extracted from Hepa1c1c7 cells that had been exposed to serial dilutions of inducers for 24 h, or from RNA-stabilized tissues (stored in TRizol) from mice, followed by reverse transcription into cDNA. The cDNA was subjected to quantitative real-time PCR analysis by using SYBR Green fluorescence with 7000 Sequence Detection System. […] Relative expressions of individual mRNAs for ALDH were normalized to β-actin as an endogenous control, and the expression rate was calculated using the comparative ΔΔCt method.

ALDH [3] = assay: Total ALDH activity in Hepa1c1c7 cell homogenates (propionaldehyde substrate, fluorimetric); assay type: cell-based, mouse
Procedure: To determine total ALDH activity, Hepa1c1c7 or MEF cells were plated into 6-cm plates at 6.0×10^5 or 1.2×10^6 cells/plate, incubated for 24 h at 37° C. in a 5% CO2 atmosphere, and then treated with serial dilutions of inducers. The inducers were dissolved in acetonitrile or DMSO and added to medium so that final concentrations of the solvents was less than 0.5 or 0.1% v/v, respectively. […] The assay was started by addition of 10 μL of 90 mM propionaldehyde, bringing the total volume to 200 μL. […] Blank reaction rates without propionaldehyde were also determined.

ALDH in WT MEFs = details: stepwise concentration of SF, 48 h
Procedure: (§1) All cell lines were grown in 5% CO2 at 37° C. Murine hepatoma cell line, Hepa1c1c7 was cultured in α-MEM supplemented with 10% (v/v) heat inactivated FBS. Mouse embryo fibroblasts (MEFs) derived from day 13.5 embryos of wild-type or Nrf2-knockout C57BL/6 mice were cultured in Iscoves Modified Dulbecco's Medium (with L-glutamine) supplemented with human recombinant epidermal growth factor (10 ng/mL), 1× insulin/transferring/selenium, and 10% (v/v) heat-inactivated FBS.
(§2) To determine total ALDH activity, Hepa1c1c7 or MEF cells were plated into 6-cm plates at 6.0×10^5 or 1.2×10^6 cells/plate, incubated for 24 h at 37° C. in a 5% CO2 atmosphere, and then treated with serial dilutions of inducers. The inducers were dissolved in acetonitrile or DMSO and added to medium so that final concentrations of the solvents was less than 0.5 or 0.1% v/v, respectively. […] ALDH activity was measured fluorimetrically in 96-well plates (white-walled) by modification of the method of Koivula et al. (1975). […] The initial velocity of NADH generation was measured (λex 340 nm and λem 460 nm) at 25° C. for 10 min in a micro-plate fluorometer. Blank reaction rates without propionaldehyde were also determined. The ALDH velocity was normalized to the protein concentration and expressed as a change in fluorescent units per min per mg of protein.

ALDH in Nrf2−/− MEFs = details: stepwise concentration of SF, 48 h
Procedure: as §1, §2

[4] = 20 μmol SF/3 g diet/day 1 week, then 2.0 g/kg ethanol oral
Procedure: (§3) After fasting overnight, they were gavaged with 35% (v/v) ethanol solution at a dose of 2.0 g/kg. Before, and 0.5, 1, 2, 3, 4, and 6 h after administration of ethanol, 20 μL of blood were collected by nicking the tail vein. The mice were then euthanized and their blood, liver, stomach and upper intestine were collected.
(§4) Blood ethanol and acetaldehyde levels in mice were determined enzymatically by modification of the method of Tottmar et al. (Tottmar 1978). Whole blood samples (20 μL) were obtained by repeated incisions of mouse tail veins. The blood was immediately mixed with 200 μL of 4% (v/v) perchloric acid (PCA) in sealed tubes at 4° C., incubated for 10 min, and then centrifuged at 3000×g for 10 min. The pH values of the supernatant fractions were adjusted to 7.5-8.0 by adding 20 μL of 3 M K2CO3 in new tubes. After removing precipitated KClO4 by centrifugation at 3000×g for 10 min, supernatant fractions were stored in sealed tubes at 4° C. until assayed.

Aldh2 = details: liver, SF diet 1 week
Procedure: (§5) All animal experiments were performed in compliance with National Institute of Health Guidelines and those of Animal Care and Use Committee of the Johns Hopkins University. […] After 1 week on these diets, mice were euthanized and their liver, forestomach, glandular stomach, and upper small intestine were harvested, frozen in liquid nitrogen, and stored at −80° C. until analyzed. A small portion of each tissue was stored in RNA stabilizing solution at 4° C. until total RNA extraction.
(§6) Total RNA was extracted from Hepa1c1c7 cells that had been exposed to serial dilutions of inducers for 24 h, or from RNA-stabilized tissues (stored in TRizol) from mice, followed by reverse transcription into cDNA. The cDNA was subjected to quantitative real-time PCR analysis by using SYBR Green fluorescence with 7000 Sequence Detection System. All primers used in this study were designed based on previous reports. Relative expressions of individual mRNAs for ALDH were normalized to β-actin as an endogenous control, and the expression rate was calculated using the comparative ΔΔCt method.

Aldh1a1 = details: liver, SF diet 1 week
Procedure: as §5, §6

Aldh3a1 [5] = details: SF diet 1 week
Procedure: as §5, §6

ALDH [6] = details: 1 week; for Cytosolic/microsomal and mitochondrial ALDH activities, fold above control: glandular-stomach
Procedure: as §5
To determine total ALDH activity, Hepa1c1c7 or MEF cells were plated into 6-cm plates at 6.0×10^5 or 1.2×10^6 cells/plate, incubated for 24 h at 37° C. in a 5% CO2 atmosphere, and then treated with serial dilutions of inducers. The inducers were dissolved in acetonitrile or DMSO and added to medium so that final concentrations of the solvents was less than 0.5 or 0.1% v/v, respectively. After 48 h of treatment, cells were washed twice with PBS, scraped from the plates, and homogenized in micro-homogenizers at 4° C. The homogenates were centrifuged at 5,000×g for 15 min at 4° C. and the supernatant fractions were collected. ALDH activity was measured fluorimetrically in 96-well plates (white-walled) by modification of the method of Koivula et al. (1975). The assay mixture (190 μL) contained 70 mM sodium pyrophosphate buffer (pH 8.0), 1.67 mM pyrazole, 1.33 mM NAD, and supernatant fraction. The assay was started by addition of 10 μL of 90 mM propionaldehyde, bringing the total volume to 200 μL. The initial velocity of NADH generation was measured (λex 340 nm and λem 460 nm) at 25° C. for 10 min in a micro-plate fluorometer. Blank reaction rates without propionaldehyde were also determined. The ALDH velocity was normalized to the protein concentration and expressed as a change in fluorescent units per min per mg of protein.
To determine ALDH activities of cytosolic/microsomal and mitochondrial fractions individually, cells or harvested tissues were homogenized at 4° C. in 10 mM Tris-HCl (pH 7.4) containing 0.25 M sucrose and 1 mM 2-mercaptoethanol and centrifuged at 750×g for 15 min to remove nuclei and cell debris. Supernatant fractions were then centrifuged twice at 12,000×g for 20 min to obtain the cytosolic/microsomal and the precipitated mitochondrial fractions. Mitochondrial fractions were suspended in 0.25 M sucrose, diluted with one-half volume of 1% sodium bicarbonate containing 1% sodium deoxycholate (w/v), and sonicated in a Branson Sonicator at 4° C. for five (5) 2-minute periods for a total of 10 min before assays.

glutathione = details: intake of SF; cited from earlier work
[7] = human research studies; cited from earlier work
[8] = Procedure: as §3, §4
Determination of acetaldehyde was performed in 10 mm quarts fluorescence cuvettes in a final volume of 2.33 mL assay mixture containing of assay mixture containing 50 mM sodium pyrophosphate (pH 8.8), 0.1 mM pyrazole, 0.1 mM NAD and 0.2 units/mL of purified ALDH (potassium activated from baker's yeast) with a luminescence spectrophotometer. Before and 5 min after addition of 170 μL of the supernatant, intensities were monitored (λex: 340 nm and λem: 460 nm). The acetaldehyde level in blood was calculated from change of intensity using acetaldehyde standard curve with range from 1.56 to 50 μM in blood. The standard curve was made by applying serial dilution of acetaldehyde to PCA treatment process same as blood.

[9] = 5 or 20 μmol SF/3 g diet/day, 1 week
Procedure: as §5

NQO1 [10] = details: liver, both parts of stomach, upper intestine; high dose 20 μmol SF/3 g diet/day, 1 week
Procedure: as §5

[11] = liver, high dose 20 μmol SF/3 g diet/day

In the case of `CC1(C)CC[C@]2(C#N)CC[C@]3(C)[C@H](C(=O)C=C4[C@@]5(C)C=C(C#N)C(=O)C(C)(C)[C@@H]5CC[C@]43C)[C@@H]2C1` [TP-225], the “CD value (concentration required to double the enzyme activity) for induction of NQO1” value (NQO1 [1]) is reported as 0.00038 µM, the “Aldh3a1 mRNA expression, fold increase” value (Aldh3a1 [2]) is reported as ~5 fold and the “CD value (concentration required to double the enzyme activity) for induction of ALDH” value (ALDH [3]; Hepa1c1c7 cells, 48 h) is reported as 0.0016 µM.
In the case of `C[S@@+]([O-])CCCCN=C=S` [SF, 1-isothiocyanato-4R-(methylsulfinyl)butane], the “Effect on total ALDH activity” value (ALDH in WT MEFs) is reported as “increased in a dose dependent manner”, the “Effect on total ALDH activity” value (ALDH in Nrf2−/− MEFs) is reported as “altogether absent” and the “Aldh3a1 mRNA expression, fold increase” value (Aldh3a1 [2]) is reported as ~5 fold. The “AUC of blood ethanol vs control” value [4] was “no significant difference”, the “Effect on blood ethanol level” value ([4]; only in descending phase) was “slightly affected” and the “Aldh2 expression level, fold increase” value (Aldh2) was 1.8 fold. For the same compound, the “Aldh1a1 expression level, fold increase” value (Aldh1a1) was 2.5 fold, the “Aldh3a1 expression, fold increase” value (Aldh3a1 [5]; forestomach) was 3 fold and the “Aldh3a1 expression, fold increase” value (Aldh3a1 [5]; glandular stomach) was 6.5 fold. For the same compound, the “Cytosolic/microsomal and mitochondrial ALDH activities, fold above control” value (ALDH [6]; (high) 20 μmol SF/3 g diet/day) was 5.1 fold, the “Cytosolic/microsomal and mitochondrial ALDH activities, fold above control” value (ALDH [6]; (low) 5 μmol SF/3 g diet/day) was 4.1 fold and the “Cytosolic/microsomal ALDH activity, fold increase” value (ALDH [6]; [11]) was 1.4 fold. The “Mitochondrial ALDH activity, fold increase” value (ALDH [6]; [11]) was 1.5 fold, the “Glutathione levels in liver” value (glutathione) was “increased glutathione levels in liver” and the “Total ALDH activity, fold above control levels” value (ALDH [3]; 3 μM SF, additional 6 hours after first 12 h) was 1.5 fold. The “Total ALDH activity, fold above control levels” value (ALDH [3]; 3 μM SF, additional 12 hours after first 12 h) was 1.9 fold, the “Total ALDH activity, fold above control levels” value (ALDH [3]; 3 μM SF, additional 24 hours after first 12 h) was 2.1 fold and the “Total ALDH activity vs control” value (ALDH [3]; 3 μM SF, first 12 h) was “not increased”. The “Concentration at which significant effects on total ALDH activity were observed” value (ALDH [3]; Hepa1c1c7 cells, 48 hours treatment) was ≥ 0.3 µM, the “Effect on total ALDH activity” value (ALDH [3]; Hepa1c1c7 cells, serial concentrations, 48 h) was “dramatically and dose dependently increased; also recorded: increased total ALDH activity in Hepa1c1c7 cells in a dose dependent manner” and the “Treatment time after which total ALDH activity increased” value (ALDH [3]; time course measurement, treatment with SF) was 12 to 18 h. The “Adverse effects on administration” value [7] was “not shown any significant adverse effects”, the “AUC of blood acetaldehyde” value ([8]; 20 μmol SF/3 g diet/day 1 week, then 2.0 g/kg ethanol oral, control 83.8±6.1) was 54.5 ± 5.1 µmol·h/L and the “Effect on blood acetaldehyde levels” value ([8]; 20 μmol SF/3 g/day 1 week, then 2.0 g/kg ethanol oral (FIG. 9)) was “remarkably lowered”. The “Acetaldehyde elimination constant relative to control mice” value ([8]; SF-fed mice) was “roughly 2 times”, the “Prevention of increase in blood acetaldehyde level” value ([8]; ascending phase, 20 μmol SF/3 g diet/day 1 week, then 2.0 g/kg ethanol oral) was 30% and the “Elimination rate constant k of blood acetaldehyde” value ([8]; first order model, SF fed mice, control 0.21±0.02, p<0.01) was 0.40 ± 0.03 h⁻¹. The “Initial blood level C0 of acetaldehyde” value ([8]; first order model, SF fed mice, control 28.62±2.1, NS) was 32.38 ± 2.4 µM, the “Body weights vs control group” value [9] was “no significant differences” and the “Food intakes vs control group” value [9] was “no significant differences”. For the same compound, the “NQO1 activity, fold increase compared to control” value (NQO1 [10]) was ≤ 2.2 fold.
For `O=c1cc(-c2ccccc2)oc2ccc3ccccc3c12` [BNF], the “Aldh3a1 mRNA expression, fold increase” value (Aldh3a1 [2]) was ~5 fold.
In the case of `Oc1ccc(C=Cc2cc(O)cc(O)c2)cc1` [resveratrol, reference compound], the “CD value (concentration required to double the enzyme activity) for induction of NQO1” value (NQO1 [1]) is reported as > 50 µM and the “CD value (concentration required to double the enzyme activity) for induction of ALDH” value (ALDH [3]; Hepa1c1c7 cells, 48 h) is reported as 120.7 µM.
